According to ChEMBL document CHEMBL3407451, “Novel approach to bis(indolyl)methanes: de novo synthesis of 1-hydroxyiminomethyl derivatives with anti-cancer properties” (Eur J Med Chem, 2015):

Experiments:
N9 [1] = experiment: Selectivity index, ratio of IC50 for human THP1 cells to IC50 for mouse N9 cells; type: functional
[2] = Cytotoxicity against human U937 cells assessed as reduction in cell viability after 72 hrs by MTT colorimetric assay; type: functional, cell-based; settings: U-937, 72 h
EL4 [3] = experiment: Cytotoxicity against mouse EL4 cells assessed as reduction in cell viability after 72 hrs by MTT colorimetric assay; type: functional, cell-based; settings: EL4, 72 h
N9 [4] = experiment: Selectivity index, ratio of IC50 for human U937 cells to IC50 for mouse N9 cells; type: functional
THP-1 [5] = experiment: Selectivity index, ratio of IC50 for human THP1 cells to IC50 for mouse S17 cells; type: functional
HepG2 [6] = experiment: Selectivity index, ratio of IC50 for human HepG2 cells to IC50 for mouse N9 cells; type: functional
[7] = Cytotoxicity against mouse S17 cells assessed as reduction in cell viability after 72 hrs by MTT colorimetric assay; type: cell-based; settings: S17, 72 h
HepG2 [8] = experiment: Selectivity index, ratio of IC50 for human HepG2 cells to IC50 for mouse S17 cells; type: functional
N9 [9] = experiment: Selectivity index, ratio of IC50 for mouse RAW264.7 cells to IC50 for mouse N9 cells; type: functional
RAW264.7 = experiment: Cytotoxicity against mouse RAW264.7 cells assessed as reduction in cell viability after 72 hrs by MTT colorimetric assay; type: functional, cell-based; settings: RAW264.7, 72 h
[10] = Selectivity index, ratio of IC50 for human MDA-MB-468 cells to IC50 for mouse S17 cells; type: functional
N9 [11] = experiment: Selectivity index, ratio of IC50 for human MDA-MB-468 cells to IC50 for mouse N9 cells; type: functional
EL4 [12] = experiment: Selectivity index, ratio of IC50 for mouse EL4 cells to IC50 for mouse N9 cells; type: functional
MDA-MB-468 = experiment: Cytotoxicity against human MDA-MB-468 cells assessed as reduction in cell viability after 72 hrs by MTT colorimetric assay; type: functional, cell-based; settings: MDA-MB-468, 72 h
HepG2 [13] = experiment: Cytotoxicity against human HepG2 cells assessed as reduction in cell viability after 72 hrs by MTT colorimetric assay; type: functional, cell-based; settings: HepG2, 72 h
THP-1 [14] = experiment: Cytotoxicity against human THP1 cells assessed as reduction in cell viability after 72 hrs by MTT colorimetric assay; type: functional, cell-based; settings: THP-1, 72 h

Row | SMILES | Ratio IC50 (N9 [1]) | IC50 [2] [µM] | IC50 (EL4 [3]) [µM] | Ratio IC50 (N9 [4]) | Ratio IC50 (THP-1 [5]) | Ratio IC50 (HepG2 [6]) | IC50 [7] [µM] | Ratio IC50 (HepG2 [8]) | Ratio IC50 (N9 [9]) | IC50 (RAW264.7) [µM] | Ratio IC50 [10] | Ratio IC50 (N9 [11]) | Ratio IC50 (EL4 [12]) | IC50 (MDA-MB-468) [µM] | IC50 (HepG2 [13]) [µM] | IC50 (THP-1 [14]) [µM]
1 | O/N=C(/c1ccc(Br)cc1)C(c1c[nH]c2ccccc12)c1c[nH]c2ccccc12 | 14.2 | 1.64 | 1.65 | 14.02 | 10.04 | 1.38 | 16.3 | 0.98 | 0.96 | 23.9 | 0.73 | 1.04 | 13.94 | 22.1 | 16.6 | 1.62
2 | Cn1cc(C(/C(=N\O)c2ccc(Br)cc2)c2cn(C)c3ccccc23)c2ccccc21 | 0.16 | 97 | 106 | 0.2 | 0.41 | 0.56 | 51.4 | 1.44 | 0.47 | 42.2 | 0.81 | 0.31 | 0.19 | 63.7 | 35.7 | 124
3 | O/N=C(/c1ccccc1)C(c1c[nH]c2ccccc12)c1c[nH]c2ccccc12 | 1.61 | 34.1 | 11.9 | 0.86 |  | 1.05 | 26.3 | 0.94 | 2.4 | 12.2 | 2.45 | 2.72 | 2.45 | 10.7 | 28 | 18.1
4 | O/N=C(/c1ccc(F)cc1)C(c1c[nH]c2ccccc12)c1c[nH]c2ccccc12 |  | 28 | 16.9 |  | 0.89 |  | 24.9 |  |  |  |  |  |  |  |  | 23
5 | C/C(=N\O)C(c1c[nH]c2ccccc12)c1c[nH]c2ccccc12 |  | 42.5 | 23.9 |  | 0.62 |  | 26.1 |  |  |  |  |  |  |  |  | 30.7
6 | C/C(=N/O)C(c1c[nH]c2ccccc12)c1c[nH]c2ccccc12 |  | 59.3 | 39 |  | 0.6 |  | 35.8 |  |  |  |  |  |  |  |  | 57.6
7 | COc1cc([C@@H]2c3cc4c(cc3[C@@H](O[C@@H]3O[C@@H]5CO[C@@H](C)O[C@H]5[C@H](O)[C@H]3O)[C@H]3COC(=O)[C@H]23)OCO4)cc(OC)c1O [ETOPOSIDE] |  | 1.1 | 4.9 |  | 8.55 | 1.71 | 10.4 | 8.97 |  | 0.82 |  | 0.88 | 0.8 | 6.69 | 1.4 | 1.82
